This is an account of results in patent US6734316B2, “Esters of fatty acids and juvenoid alcohols, and a method of their preparation and use” (Institute of Organic Chemistry and Biochemistry ASCR, priority 2000, dated 2004).

The assay has as its system termite Prorhinotermes simplex. As to the kind of experiment: Force feeding test (FF): juvenilizing effect (induction of soldier caste differentiation) on termite pseudergates. Type of assay: in vivo. The conditions noted are these: 500 ppm in treated food, 60 pseudergates, 16 days, soldier caste induction in percents of surviving individuals. The text has this:
A Way of Screening of the Biological Activity of the Compound Claimed in the claim 1 of the General Formula I Against Termite Prorhinotermes Simplex
Termites have only a sample of food treated with the compound claimed in the claim 1 of the general formula I in the force feeding test (FF), but a choice between a sample of food treated with the compound claimed in the claim 1 of the general formula I and a reference sample of food treated with acetone only. A treatment of the food samples with the compound I claimed in the claim 1 has been made in at least two concentrations, 500 ppm and 5 ppm. A number of 60 pseudergates was exposed to a treatment in each test, and each test is twice repeated. Each test has 16 days duration. The induction of the soldier caste differentiation has been evaluated as the juvenilizing effect. The result is given in percents of the number of surviving individuals. The juvenoid methoprene has been used as the reference compound for testing of the biological activity of the compound I claimed in the claim 1. The results of screening of several structures corresponding the general formula I claimed in the claim 1 in a concentration of 500 ppm are given in Table 1.
With `CCCC(=O)O[C@@H]1CCCC[C@H]1Cc1ccc(OCCNC(=O)OCC)cc1` (relative stereo) [Ethyl N-{2-{4-[(trans-2-butanoyloxycyclohexyl)methyl]phenoxy}ethyl} carbamate], the “Juvenilizing effect [%]” value stood at 87.4%.
For the compound `COC(C)(C)CCC[C@H](C)C/C=C/C(C)=C/C(=O)OC(C)C` (racemic) [Methoprene, methoprene, reference compound], the “Juvenilizing effect [%]” value was determined as 1.3%.
For the compound `CCCCCCCC/C=C\CCCCCCCC(=O)O[C@H]1CCCC[C@H]1Cc1ccc(OCCNC(=O)OCC)cc1` (relative stereo) [Ethyl N-{2-{4-[(cis-2-(cis-9-octadecenoyl)oxycyclohexyl)methyl]phenoxy}ethyl} carbamate], the “Juvenilizing effect [%]” value was determined as 93.7%.
As to `CCCCCCCCCCCCCCCCCC(=O)O[C@H]1CCCC[C@H]1Cc1ccc(OCCNC(=O)OCC)cc1` (relative stereo) [Ethyl N-{2-{4-[(cis-2-octadecanoyloxycyclohexyl)methyl]phenoxy}ethyl} carbamate], the “Juvenilizing effect [%]” value was found to be 40.0%.
In the case of `CCCCCCCC/C=C\CCCCCCCC(=O)O[C@@H]1CCCC[C@H]1Cc1ccc(OCCNC(=O)OCC)cc1` (relative stereo) [Ethyl N-{2-{4-[(trans-2-(cis-9-octadecenoyl)oxycyclohexyl)methyl]phenoxy}ethyl} carbamate], the “Juvenilizing effect [%]” value was 64.7%.
For the compound `CCCCCCCCCCCCCCCC(=O)O[C@H]1CCCC[C@H]1Cc1ccc(OCCNC(=O)OCC)cc1` (relative stereo) [Ethyl N-{2-{4-[(cis-2-hexadecanoyloxycyclohexyl)methyl]phenoxy}ethyl} carbamate], the “Juvenilizing effect [%]” value is recorded as 89.1%.
For the compound `CCCCCCCCCCCCCCCC(=O)O[C@@H]1CCCC[C@H]1Cc1ccc(OCCNC(=O)OCC)cc1` (relative stereo) [Ethyl N-{2-{4-[(trans-2-hexadecanoyloxycyclohexyl)methyl]phenoxy}ethyl} carbamate], the “Juvenilizing effect [%]” value was determined as 90.1%.
As for `CCCC(=O)O[C@H]1CCCC[C@H]1Cc1ccc(OCCNC(=O)OCC)cc1` (relative stereo) [Ethyl N-{2-{4-[(cis-2-butanoyloxycyclohexyl)methyl]phenoxy}ethyl} carbamate], the “Juvenilizing effect [%]” value was 86.1%.
For the compound `CCCCCCCCCCCCCCCCCC(=O)O[C@@H]1CCCC[C@H]1Cc1ccc(OCCNC(=O)OCC)cc1` (relative stereo) [Ethyl N-{2-{4-[(trans-2-octadecanoyloxycyclohexyl)methyl]phenoxy}ethyl} carbamate], the “Juvenilizing effect [%]” value is listed as 70.0%.
